Tests used:
Type in all cases: in vivo
Conditions in all cases: application to foliage, 320 g/ha
Triticum aestivum = assay: Test Example 4: effect on crop by application to foliage (diluvial soil, plastic box)
In short: (§1)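 Seeds sown in sterilized diluvial soil, covered ~1.5 cm, grown 14 days in greenhouse at 25° C. to 30° C. Emulsion formulation diluted in water to set rate (g/ha) and sprayed onto stems and leaves. Effect scored visually 3 weeks later on 0–5 scale (5 = ≥90% herbicidal ratio, 0 = ≤5%).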

[1] = system: directly sowed Oryza sativa; assay: as above
In short: as §1

[2] = system: Beta vulgaris ssp. vulgaris; assay: as above
In short: as §1

Zea mays = assay: as above
In short: as §1

Brassica campestris L. = assay: as above
In short: as §1

Glycine max = assay: as above
In short: as §1

Digitaria ciliaris = assay: Test Example 4: herbicidal effect by application to foliage (diluvial soil, plastic box)
Excerpt: (§2) 5 Herbicidal ratio of 90% or more (almost completely withered) 4 Herbicidal ratio of 70% or more and less than 90% 3 Herbicidal ratio of 40% or more and less than 70% 2 Herbicidal ratio of 20% or more and less than 40% 1 Herbicidal ratio of 5% or more and less than 20% 0 Herbicidal ratio of 5% or less (almost no effect) [Test Example 4] Herbicidal Effect Test by Application to Foliage Sterilized diluvial soil was placed in a plastic box having a length of 21 cm, a width of 13 cm, and a depth of 7 cm. Each of the seeds of Digitaria ciliaris, Setaria viridis, Echinochloa crus-galli var. crus-galli, Avena fatua, Alopecurus myosuroides, Lolium multiflorum Lam., Apera spica-venti., Abutilon theophrasti, Amaranthus retroflexus, Chenopodium album, Stellaria media, Galium spurium, Veronica persica, Zea mays, Glycine max, Oryza sativa, Triticum aestivum, Beta vulgaris ssp. vulgaris, and Brassica campestris L. was sowed in a spot-like manner and was covered with the soil of about 1.5 cm thick. Thereafter, the plants were grown in the greenhouse of 25° C. to 30° C. After the plants were grown for 14 days, the emulsion agent containing the compound of the present invention prepared in accordance with Formulation Example 2 was diluted with water so as to be a predetermined herbicide amount and the diluted compound was uniformly applied to a stem and leaf part with a small-size spray. Three weeks after the herbicide application, effects on each plant were investigated in accordance with the criteria of Test Example 1. A: Echinochloa oryzicola Vasing., B: Scirpus juncoides, C: Monochoria vaginalis, D: Leptochloa chinensis, E: Cyperus difformis, F: Digitaria ciliaris, G: Setaria viridis, H: Echinochloa crus-galli var. crus-galli, I: Avena fatua, J: Alopecurus myosuroides, K: Lolium multiflorum Lam., L: Apera spica-venti., M: Abutilon theophrasti, N: Amaranthus retroflexus, O: Chenopodium album, P: Stellaria media, Q: Galium spurium, R: Veronica persica, a: transplanted Oryza sativa, b: directly sowed Oryza sativa, c: Zea mays, d: Glycine max, e: Triticum aestivum, f: Beta vulgaris ssp. vulgaris, and g: Brassica campestris L. The application herbicide amount (g/ha) means an amount that a concentration is adjusted so that, when an application amount is converted into per hectare (1 ha), the herbicide is applied by the number of grams (g) of the described value.

Lolium multiflorum Lam. = assay: as above
Excerpt: as §2

Abutilon theophrasti = assay: as above
Excerpt: as §2

Setaria viridis = assay: as above
Excerpt: as §2

Chenopodium album = assay: as above
Excerpt: as §2

Avena fatua = assay: as above
Excerpt: as §2

Apera spica-venti. = assay: as above
Excerpt: as §2

Stellaria media = assay: as above
Excerpt: as §2

Alopecurus myosuroides = assay: as above
Excerpt: as §2

Amaranthus retroflexus = assay: as above
Excerpt: as §2

[3] = system: Echinochloa crus-galli var. crus-galli; assay: as above
Excerpt: as §2

Veronica persica = assay: as above
Excerpt: as §2

Galium spurium = assay: as above
Excerpt: as §2

| SMILES | effect on crop, e (Triticum aestivum) (Triticum aestivum) | effect on crop, d (directly sowed Oryza sativa) [1] | effect on crop, f (Beta vulgaris ssp. vulgaris) [2] | effect on crop, b (Zea mays) (Zea mays) | effect on crop, g (Brassica campestris L.) (Brassica campestris L.) | effect on crop, c (Glycine max) (Glycine max) | herbicidal effect, F (Digitaria ciliaris) (Digitaria ciliaris) | herbicidal effect, K (Lolium multiflorum Lam.) (Lolium multiflorum Lam.) | herbicidal effect, M (Abutilon theophrasti) (Abutilon theophrasti) | herbicidal effect, G (Setaria viridis) (Setaria viridis) | herbicidal effect, O (Chenopodium album) (Chenopodium album) | herbicidal effect, I (Avena fatua) (Avena fatua) | herbicidal effect, L (Apera spica-venti.) (Apera spica-venti.) | herbicidal effect, P (Stellaria media) (Stellaria media) | herbicidal effect, J (Alopecurus myosuroides) (Alopecurus myosuroides) | herbicidal effect, N (Amaranthus retroflexus) (Amaranthus retroflexus) | herbicidal effect, H (Echinochloa crus-galli var. crus-galli) [3] | herbicidal effect, R (Veronica persica) (Veronica persica) | herbicidal effect, Q (Galium spurium) (Galium spurium) |
| --- | --- | --- | --- | --- | --- | --- | --- | --- | --- | --- | --- | --- | --- | --- | --- | --- | --- | --- | --- |
| CCn1nc2c(C(=O)Nc3nonc3C)ccc(C(F)(F)F)n2c1=O [6-008] | 0 (Herbicidal ratio of 5% or less (almost no effect)) | 1 (Herbicidal ratio of 5% or more and less than 20%) | 1 (Herbicidal ratio of 5% or more and less than 20%) | 0 (Herbicidal ratio of 5% or less (almost no effect)) | 0 (Herbicidal ratio of 5% or less (almost no effect)) | 0 (Herbicidal ratio of 5% or less (almost no effect)) | 0 (Herbicidal ratio of 5% or less (almost no effect)) | 0 (Herbicidal ratio of 5% or less (almost no effect)) | 1 (Herbicidal ratio of 5% or more and less than 20%) | 0 (Herbicidal ratio of 5% or less (almost no effect)) | 3 (Herbicidal ratio of 40% or more and less than 70%) | 0 (Herbicidal ratio of 5% or less (almost no effect)) | 0 (Herbicidal ratio of 5% or less (almost no effect)) | 1 (Herbicidal ratio of 5% or more and less than 20%) | 0 (Herbicidal ratio of 5% or less (almost no effect)) | 0 (Herbicidal ratio of 5% or less (almost no effect)) | 0 (Herbicidal ratio of 5% or less (almost no effect)) | 0 (Herbicidal ratio of 5% or less (almost no effect)) | 0 (Herbicidal ratio of 5% or less (almost no effect)) |
| Cc1nnc(NC(=O)c2ccc(C(F)(F)F)n3c(=O)n(C)nc23)o1 [6-001] | 0 (Herbicidal ratio of 5% or less (almost no effect)) | 0 (Herbicidal ratio of 5% or less (almost no effect)) | 3 (Herbicidal ratio of 40% or more and less than 70%) | 0 (Herbicidal ratio of 5% or less (almost no effect)) | 0 (Herbicidal ratio of 5% or less (almost no effect)) | 0 (Herbicidal ratio of 5% or less (almost no effect)) | 1 (Herbicidal ratio of 5% or more and less than 20%) | 0 (Herbicidal ratio of 5% or less (almost no effect)) | 3 (Herbicidal ratio of 40% or more and less than 70%) | 2 (Herbicidal ratio of 20% or more and less than 40%) | 4 (Herbicidal ratio of 70% or more and less than 90%) | 0 (Herbicidal ratio of 5% or less (almost no effect)) | 0 (Herbicidal ratio of 5% or less (almost no effect)) | 4 (Herbicidal ratio of 70% or more and less than 90%) | 0 (Herbicidal ratio of 5% or less (almost no effect)) | 3 (Herbicidal ratio of 40% or more and less than 70%) | 1 (Herbicidal ratio of 5% or more and less than 20%) | 2 (Herbicidal ratio of 20% or more and less than 40%) | 2 (Herbicidal ratio of 20% or more and less than 40%) |
| CC(C)c1nnc2c(C(=O)Nc3ncnn3C)ccc(C(F)(F)F)n12 [4-001] | 0 (Herbicidal ratio of 5% or less (almost no effect)) | 2 (Herbicidal ratio of 20% or more and less than 40%) | 2 (Herbicidal ratio of 20% or more and less than 40%) | 0 (Herbicidal ratio of 5% or less (almost no effect)) | 0 (Herbicidal ratio of 5% or less (almost no effect)) | 0 (Herbicidal ratio of 5% or less (almost no effect)) | 1 (Herbicidal ratio of 5% or more and less than 20%) | 0 (Herbicidal ratio of 5% or less (almost no effect)) | 5 (Herbicidal ratio of 90% or more (almost completely withered)) | 2 (Herbicidal ratio of 20% or more and less than 40%) | 5 (Herbicidal ratio of 90% or more (almost completely withered)) | 1 (Herbicidal ratio of 5% or more and less than 20%) | 0 (Herbicidal ratio of 5% or less (almost no effect)) | 3 (Herbicidal ratio of 40% or more and less than 70%) | 0 (Herbicidal ratio of 5% or less (almost no effect)) | 5 (Herbicidal ratio of 90% or more (almost completely withered)) | 3 (Herbicidal ratio of 40% or more and less than 70%) | 3 (Herbicidal ratio of 40% or more and less than 70%) | 3 (Herbicidal ratio of 40% or more and less than 70%) |
